Reference: PMC5555576, “Selective small-chemical inhibitors of protein arginine methyltransferase 5 with anti-lung cancer activity” (PLoS ONE, 2017)
pIC50: −log10 of the molar value. Values joined by “and” are separate entries in the source; they are usually repeats but may differ in a detail not shown here. Identical values can stand only once. Like-named read-outs stand apart in the source and are kept apart here.

Legend:
PRMT5 [1] = details: cited from earlier work; for selectivity for PRMT5: versus PRMT1, CARM1, or PRMT7
PRMT5 [2] = biological target: T1, PRMT5 (Homo sapiens, UniProt O14744); test: Radioactive methyltransferase assay, PRMT5; type: biochemical; details: methylation of SmD3 by PRMT5; Table 1 prints no unit, μM; read-out: IC50
T1 construct: His6; made in house; host or cells: E. coli BL21(ED3) [sic]
Experimental: (§1) Methylation reactions were performed as previously described with a few modifications. Reaction mixtures (40 μl) containing 1.2 μg of PRMT5, 98 ng of PRMT1 or 98 ng of PRMT3; 2 μg of SmD3 or histones; 1 μCi of S-[methyl-^3H]adenosylmethionine (H^3-AdoMet; PerkinElmer); and 5 μM AdoMet were incubated in 50 mM Tris-HCl (pH 7.5)–1 mM EGTA–1 mM EDTA at 30°C for 2 h. Reaction mixtures (20 μl) were boiled in 5 μl of 5x SDS sample buffer and separated on a 15% polyacrylamide gel. Gels were fixed for 30 min in 40% methanol–10% acetic acid, incubated in 20 ml of Amplify (Amersham Life Science) for 10 min, dried and exposed to X-ray film at -80°C. IC50 was calculated by linear regression analysis of percent inhibition. The other half (20 μl) of each reaction mixture was spread onto DE81 chromatography paper discs (Whatman). The paper discs were washed 4 times with 50 mM NaHCO3 and dried. The amounts of methylated products were quantified by liquid scintillation.
In vitro methylation reactions were performed with recombinant PRMT5 (1.2 μg), PRMT1 ([…]) or PRMT3 (89 ng); [H^3]-AdoMet; and different substrates in the presence of identified compounds. […] The recombinant SmD3 (2 μg) was used as the substrate in the absence (lane 2) or presence of 1, 10 or 100 μM compounds as indicated. Reaction mixtures were separated on an SDS–15% polyacrylamide gel and the gel was dried under vacuum and exposed to film. […] Recombinant histones H4 or H2A (1 μg) were used as substrates of PRMT5 in the methylation assay in the absence or presence of 100 μM compounds as indicated. Reaction mixtures were spread onto DE81 chromatography paper discs. After a wash, the amounts of methylated products on discs were quantified by liquid scintillation. […] PRMT1 was incubated with purified histones (1 μg) or recombinant E2F1 (1 μg) as substrates in the absence (lane 2) or presence of 100 μM compounds as indicated. Reaction mixtures were separated on an SDS–15% polyacrylamide gel and the gel was dried and exposed to film.

PRMT5 F225M [3] = biological target: T2, PRMT5 F225M (Homo sapiens, UniProt O14744, F327M); test: Radioactive methyltransferase assay, mutant PRMT5; type: biochemical; details: F225M mutant PRMT5, SmD3 substrate, Fig 4D
T2 construct: His6; made in house; host or cells: bacteria (E. coli BL21(ED3) for the wild type)
Experimental: as §1
(§2) The inhibitory activity of the compounds may stem from this interaction. To test this possibility, we conducted site-directed mutagenesis to mutate Phe225 in human PRMT5 (corresponding to Phe379 in the C. elegans PRMT5) to Met. The mutated PRMT5 was expressed in bacteria and purified by Ni-nitrilotriacetic acid (Ni-NTA) affinity chromatography (Fig 4A). The activity of the mutant PRMT5 was examined by the radioactive methyltransferase assay. […] The IC50 values for the mutant PRMT5 increased from 4.3 to 183 folds higher than those for the wild type PRMT5 (Fig 4D). […] The results also can help explain the specificity of the compounds to PRMT5. However, the contribution of this interaction to inhibition varies among the compounds. For example, compound C2 interacts with three amino acid residues (Lys451, Glu450, and Phe379) (Fig 3A) with the mutation of Phe to Met resulting in a 50-times higher IC50 (Fig 4C and 4D).
(§3) Fig 4 The conserved phenylalanine residue in PRMT5 is critical for inhibition by the five compounds. A, DS-PAGE of recombinant wild type (WT) and F225M mutant (MT) PRMT5. The gel was stained with Coomassie Brilliant Blue R250. A band corresponding to an unknown bacterial protein is indicated (star). B, The F225M mutation increased the methytransferase activity of PRMT5. In vitro methylation reactions were performed with recombinant wild type (lanes 2–4) or mutant (lanes 5–7) PRMT5 (1.2, 2.4 or 4.8 μg) and SmD3 (2 μg) as the substrate. C, The F225M mutation in PRMT5 decreased inhibition of arginine methylation by the compounds. The reaction mixture contained SmD3 (2 μg); wild type or mutant PRMT5 (1.2 μg); and 1, 10 or 100 μM compounds as indicated. D, The F225M mutation in PRMT5 […] of the compounds, as determined by quantitation and analysis of methylation assay results. TEXT PRINTED IN THE PICTURE: (D) C2: IC50 (μM) PRMT5: 0.1; IC50 (μM) PRMT5 F225M: 5.0 | (D) C5: IC50 (μM) PRMT5: 0.8; IC50 (μM) PRMT5 F225M: 3.5 | (D) C6: IC50 (μM) PRMT5: 0.5; IC50 (μM) PRMT5 F225M: 7.0 | (D) C9: IC50 (μM) PRMT5: 6.0; IC50 (μM) PRMT5 F225M: 45.0 | (D) C11: IC50 (μM) PRMT5: 0.3; IC50 (μM) PRMT5 F225M: 55.0

A549 cells = test: Cellular permeability and stability by HPLC of cell extracts; type: in vitro ADME; details: 2 hr in medium with compound
Experimental: Waters 2695 HPLC System and a C18 column (Symmetry, 3.6 x 75 mm) were used. The column was equilibrated with 10% acetonitrile and eluated with a linear gradient from 10% acetonitrile to 100% acetonitrile in 60 min. Compounds were dissolved in 10% acetonitrile and the purchased compounds (ChemBridge) were used as the standards.
We then determined whether the identified compounds are cell-permeable. Lung cancer A549 cells were cultured in medium containing various concentrations of the respective compound for 2 hr. Cells were harvested and washed with PBS. The compounds were extracted with ethyl acetate from cells and analyzed by HPLC with a C18 column using the purchased compound as the standard. Compounds C2, C5, C9 and C11 are cell-permeable (Fig 6A), which is consistent with their tPSAs <140 angstroms square (Table 1). […] We even noticed that the compound C5 crystalized inside the cells.
A, The cellular permeability of identified compounds. Lung cancer A549 cells were cultured in the presence of various concentrations of compounds for 2h and the compound concentrations in the cell were determined by HPLC chromatography with a C18 column. B, The cellular stability of identified compounds. Lung cancer A549 cells were cultured in the presence of compounds (20 μM) for 2 h and then the medium was removed. Cells were washed with the medium and cultured for additional 5 or 10 h after the compounds were removed. The compound concentrations in the cell were determined by HPLC chromatography with a C18 column. […] A549 cells were grown in the presence of DMSO or compound C5, C9 or C11 (20 μM). Histones were purified and analyzed by SDS-PAGE stained with Commassie blue (lanes 1–4, bottom) or by Western blot with anti-symmetric dimethyl arginine antibody (SYM10) (lanes 1–4, top). B-Raf was immunoprecipitated with anti-B-Raf antibody from whole cell lysates and submitted for Western blot analysis with anti-B-Raf (lanes 5 and 6, bottom) or anti-symmetric dimethyl arginine (lanes 5 and 6, top) antibody.

PRMT5 F225M [4] = test: Radioactive methyltransferase assay, mutant PRMT5; type: biochemical, human; details: Phe225 to Met
Experimental: as §1, §2, §3

PRMT5 [5] = biological target: T1, PRMT5; test: Steady-state kinetic analysis of PRMT5 inhibition (time-dependent inhibition assay); type: biochemical
Experimental: Different amounts of compound C2 or C5 were present in the final methylation reaction mixtures with 1.2 μg of PRMT5, 5 μM AdoMet, 2 μCi of H^3-AdoMet and various concentrations of SmD3. After a 10-, 20- or 30-min incubation at 30 °C or no incubation, the reaction mixtures were spread onto DE81 chromatography paper discs and the amounts of methylated products were quantified by liquid scintillation. Amounts (counts per minute [cpm]) of methylated products and incubation time (minutes) were plotted and reaction velocity (cpm per minute) was deduced.
To understand the mechanism of inhibition of identified compounds, we analyzed the kinetic pattern of inhibition using steady-state enzymatic measurements. The velocities of PRMT5 methylation of SmD3 were measured at several selected concentrations of compounds C2 and C5 over a range of SmD3 concentrations. Plotted in the double-reciprocal format with 1/velocity versus 1/[SmD3]
Fig 5 Steady-state kinetic analysis of PRMT5 inhibition by compounds C2 and C5. Double-reciprocal plot of reaction velocities (cpm per minute) versus concentrations of SmD3. Methylation reaction mixtures contained various concentrations of C2 (left) or C5 (right), various concentrations of SmD3, 1.2 μg of PRMT5 and 5 μM AdoMet. The mixtures were incubated for different times and the amounts of methylated products were quantified using DE81 paper and liquid scintillation. Reaction velocity was calculated as H^3 incorporation (cpm) into SmD3 per minute.

[6] = tested on: CDK4/6 (Rb pS811) in A549 cells; test: Western blot of Rb phosphorylation at S811; type: cell-based; details: 20 μM, 4 h
Excerpt: The retinoblastoma protein (Rb) is phosphorylated by CKDs in cells.
(TIF) Click here for additional data file.

MCL xenograft models = tested on: MCL xenograft models; set-up: method as in PMID 25915199; details: cited from earlier work
[7] = tested on: PRMT5-target genes in A549 cells; test: Real-time PCR of PRMT5-regulated genes; type: cell-based; details: 50 μM, 24 hrs
Experimental: We identified a set of genes whose expression was altered by silencing PRMT5 expression in lung cancer A549 cells. A549 cells were treated with C9a and EPZ015666 and expression of 6 identified PRMT5-regulated genes was analyzed. […] The future study would use genome-wide approach to determine genes whose expression is affected by PRMT5 inhibitors.
Supplementary file pone.0181601.s005.tif: S5 Fig PRMT5 inhibitors selectively affect PRMT5-target genes in lung cancer cells. RNAs were isolated from cells cultured in the presence of DMSO, EPZ015666 (Sigma-Aldrich) (50 μM), or C9a (50 μM) for 24 hrs and submitted to RT-RCR analysis of gene expression in cancer cell lines. Relative mRNA levels = mRNA in cells treated with PRMT5-inhibtor/mRNA in DMSo-treated cells. (TIF) Click here for additional data file.

[8] = single replicate, vs control, actin-normalised, listed as EPZ

T1 sequence (O14744 whole entry): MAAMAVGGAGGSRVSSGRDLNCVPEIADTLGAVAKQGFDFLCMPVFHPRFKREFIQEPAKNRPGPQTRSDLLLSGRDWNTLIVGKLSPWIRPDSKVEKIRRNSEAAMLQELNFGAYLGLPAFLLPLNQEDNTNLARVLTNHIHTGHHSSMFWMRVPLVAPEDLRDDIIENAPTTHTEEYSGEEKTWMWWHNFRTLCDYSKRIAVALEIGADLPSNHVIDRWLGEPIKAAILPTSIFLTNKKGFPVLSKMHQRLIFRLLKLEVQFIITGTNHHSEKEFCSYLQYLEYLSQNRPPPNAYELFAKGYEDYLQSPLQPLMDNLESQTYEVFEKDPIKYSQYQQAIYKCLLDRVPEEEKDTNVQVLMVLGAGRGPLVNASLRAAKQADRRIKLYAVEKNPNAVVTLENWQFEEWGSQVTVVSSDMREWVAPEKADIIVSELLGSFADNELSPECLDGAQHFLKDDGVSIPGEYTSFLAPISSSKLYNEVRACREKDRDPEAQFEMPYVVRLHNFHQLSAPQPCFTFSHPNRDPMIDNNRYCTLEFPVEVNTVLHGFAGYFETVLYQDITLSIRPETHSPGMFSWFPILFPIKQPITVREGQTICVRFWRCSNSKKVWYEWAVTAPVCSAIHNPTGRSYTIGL
T2 sequence (O14744 whole entry F327M): as the sequence (O14744 whole entry) above, with F327M counted along it

## CCNC(=O)NCCSC[C@H]1O[C@@H](n2cnc3c(N)ncnc32)[C@H](O)[C@@H]1O [DS-437]
PRMT5 [1]; AdoMet competitor, cofactor-binding site
  pIC50: 5.22

## CCc1ccc(-c2cn3c4ccccc4nc3n2CCN2CCOCC2)cc1 [Compound C6]
PRMT5 [2]
  IC50: 0.5 µM
PRMT5 F225M [3]
  IC50: 7 µM
A549 cells
  cell permeability: not cell-permeable

## COc1nc(Nc2ccc(-c3nc4ccccc4o3)cc2)nc(OC)n1 [Compound C1]
PRMT5 [2]
  IC50: 0.5 µM

## Cc1ccnc(NC(=O)c2ccc(COc3ccc(Cl)cc3)o2)c1 [Compound C2]
PRMT5 [2]
  IC50: 0.1 µM
PRMT5 F225M [3]
  IC50: 5 µM
PRMT5 F225M [4]
  increase of IC50 for mutant PRMT5 over wild type PRMT5: 50 fold
PRMT5 [5]
  mode of inhibition with regard to SAM: not competitive inhibitors
PRMT5 [5]; double-reciprocal plot
  mode of inhibition with regard to the SmD3 substrate: competitive inhibitors
A549 cells
  cell permeability: cell-permeable

## O=C(Nc1nccs1)c1ccc(COc2ccc(F)cc2)o1 [Compound C7]
PRMT5 [2]
  IC50: 2.5 µM

## Nc1c(C(=O)Nc2ccccc2)sc2nc3c(cc12)CCC3 [Compound C4]
PRMT5 [2]
  IC50: 0.6 µM

## CCn1c2ccccc2c2cc(CNCc3ccccn3)ccc21 [CMP5]
PRMT5 [1]
  selectivity for PRMT5: specifically inhibited PRMT5 rather than PRMT1, CARM1, or PRMT7

## CC(=O)c1c(C)c2cnc(Nc3ccc(N4CCNCC4)cn3)nc2n(C2CCCC2)c1=O [Palbociclib, reference compound]
[6]
  Rb phosphorylation at the site S811 by CDK4/6: inhibited

## CCn1c2ccccc2c2cc(CNCc3ccccc3OC)ccc21.Cl [HLCL-61]
PRMT5 [1]
  selectivity for PRMT5: specifically inhibited PRMT5 rather than PRMT1, CARM1, or PRMT7

## O=C(NC[C@H](O)CN1CCc2ccccc2C1)c1cc(NC2COC2)ncn1 [EPZ015666, reference compound]
PRMT5 [1]
  pIC50: […]
MCL xenograft models
  antitumor activity: demonstrated antitumor activity in multiple MCL xenograft models
[7]; average
  EXPRESSION FOLD CHANGE avg BTG2: […]
  EXPRESSION FOLD CHANGE avg FGFR1: […]
  EXPRESSION FOLD CHANGE avg FOXO3: […]
  EXPRESSION FOLD CHANGE avg GLIPR1: […]
  EXPRESSION FOLD CHANGE avg PTTG1: […]
  EXPRESSION FOLD CHANGE avg TIGAR: […]
[7]; [8]
  EXPRESSION FOLD CHANGE BTG2: […]
  EXPRESSION FOLD CHANGE FGFR1: […]
  EXPRESSION FOLD CHANGE FOXO3: […]
  EXPRESSION FOLD CHANGE GLIPR1: […]
  EXPRESSION FOLD CHANGE PTTG1: […]
  EXPRESSION FOLD CHANGE TIGAR: […]
